According to patent US20040043985A1, “6,6-Fused heteroaryl derivatives as matrix metalloproteinase inhibitors” (priority 2002, published 2004):

Molecular target: T1, hMMP-13CD (Homo sapiens, UniProt P45452)
T1 construct: a human MMP-13 catalytic domain (“hMMP-13CD”)
Experiment: Inhibition of MMP-13 catalytic domain (thiopeptolide substrate assay)
Type: biochemical
Excerpt: The assays measure the amount by which a test compound reduces the hydrolysis of a thiopeptolide substrate catalyzed by a matrix metalloproteinase enzyme. Such assays are described in detail by Ye et al., in Biochemistry, 1992;31(45):11231-11235, which is incorporated herein by reference. One such assay is described below in Biological Method 1.
Thiopeptolide substrates show virtually no decomposition or hydrolysis at or below neutral pH in the absence of a matrix metalloproteinase enzyme. A typical thiopeptolide substrate commonly utilized for assays is Ac-Pro-Leu-Gly-thioester-Leu-Leu-Gly-OEt. A 100 μL assay mixture will contain 50 mM of N-2-hydroxyethylpiperazine-N′-2-ethanesulfonic acid buffer (“HEPES,” pH 7.0), 10 mM CaCl2, 100 μM thiopeptolide substrate, and 1 mM 5,5′-dithio-bis-(2-nitro-benzoic acid) (DTNB). The thiopeptolide substrate concentration may be varied, for example from 10 to 800 μM to obtain Km and Kcat values. The change in absorbance at 405 nm is monitored on a Thermo Max microplate reader (molecular Devices, Menlo Park, Calif.) at room temperature (22° C.). The calculation of the amount of hydrolysis of the thiopeptolide substrate is based on E412=13600 M^−1 cm^−1 for the DTNB-derived product 3-carboxy-4-nitrothiophenoxide. […]

O=C(O)c1ccc(Cn2ccc3ccc(C#CCn4ccnn4)cc3c2=O)cc1 [4-[1-oxo-7-(3-[1,2,3]triazol-1-ylprop-1-ynyl)-1H-isoquinolin-2-ylmethyl]benzoic acid]
IC50: > 50 µM
